Measurements reported in patent US20150218534A1, “MODIFIED DNA POLYMERASE” (TOYOBO CO., LTD., priority 2012, published 2015).

Legend:
482 bp of human β-globin = test: PCR amplification of 482 bp of human β-globin with dUTP in place of dTTP; format: biochemical; design: key to Results of PCR in the presence of dUTP 481 bp: A: Amplified; B: Amplified (faint band); C: Not amplified; conditions: for Results of PCR in the presence of dUTP 481 bp: dTTP replaced by dUTP, 35 cycles; for PCR amplification of 482 bp with dUTP: 100% dUTP instead of dTTP (FIGS. 5 to 8)
Procedure, shortened: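 482 bp human β-globin amplified from 10 ng human genomic DNA with 1 U enzyme premixed with KOD antibody, using 0.2 mM dNTPs with either dTTP or dUTP, 1.5 mM MgSO4, 15 pmol primers. Cycling: 94 °C 2 min, then 35 cycles of 98 °C 10 s, 68 °C 1 min; products analysed by MultiNA DNA-1000 microchip electrophoresis.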

[1] = tested on: 1.3 kbp, 2.8 kbp, and 3.6 kbp of human β-globin; test: Amplification of long-chain DNA in PCR using dUTP; format: biochemical; design: key to Results of PCR in the presence of dUTP 1.3 kbp / Results of PCR in the presence of dUTP 2.8 kbp / Results of PCR in the presence of dUTP 3.6 kbp: A: Amplified; B: Amplified (faint band); C: Not amplified; conditions: dTTP replaced by dUTP, 35 cycles
Procedure, shortened: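 Enzymes (1 U, premixed with KOD antibody) amplified 1.3, 2.8 and 3.6 kbp β-globin from 10 ng human genomic DNA with 2 mM dNTPs having dUTP in place of dTTP, 1.5 mM MgSO4, 35 cycles (98° C. 10 s, 65° C. 30 s, 68° C. ~1 min/kbp). Taq control: 2.5 U, 94° C. denaturation. Yield judged by ethidium-stained agarose gel.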

Row | Molecule | Results of PCR in the presence of dUTP 481 bp (482 bp of human β-globin) | Results of PCR in the presence of dUTP 1.3 kbp [1] | Results of PCR in the presence of dUTP 2.8 kbp [1] | Results of PCR in the presence of dUTP 3.6 kbp [1] | PCR amplification of 482 bp with dUTP (482 bp of human β-globin)
1 | KOD P115Δ: modified KOD DNA polymerase lacking P115 | C | C | C | C | 
2 | KOD H147E/Y7A/P36H: KOD H147E (exo(+)) mutant with Y7A and P36H | A | A | A | B | 
3 | KOD N210D/Y7A/V93K: KOD N210D (exo(−)) mutant with Y7A and V93K | A | A | A | A | 
4 | KOD P36R/V93K: modified KOD DNA polymerase with P36R and V93K | C | C | C | C | 
5 | KOD N210D/Y7A: KOD N210D (exo(−)) mutant with Y7A | C | C | C | C | 
6 | KOD N210D/V93K: KOD N210D (exo(−)) mutant with V93K | A | A | B | B | 
7 | KOD D141A/E143A/Y7A/P36H: KOD D141A/E143A (exo(−)) mutant with Y7A and P36H | A | A | A | A | 
8 | KOD H147E/P36R: KOD H147E (exo(+)) mutant with P36R | A | B | B | B | 
9 | KOD H147E/Y7A: KOD H147E (exo(+)) mutant with Y7A | C | C | C | C | 
10 | KOD H147E/Y7A/P115Δ: KOD H147E (exo(+)) mutant with Y7A and lacking P115 | C | C | C | C | 
11 | KOD H147E/V93Q: KOD H147E (exo(+)) mutant with V93Q | A | C | C | C | 
12 | KOD Y7A/P36H: modified KOD DNA polymerase with Y7A and P36H | A | A | A | B | allowed for PCR amplification
13 | KOD D141A/E143A/Y7A: KOD D141A/E143A (exo(−)) mutant with Y7A | C | C | C | C | 
14 | KOD Y7A: modified DNA polymerase derived from Thermococcus kodakaraensis KOD1 with Y7A (protein, listed as Thermococcus kodakaraensis) MILDTDAITEDGKPVIRIFKKENGEFKIEYDRTFEPYFYALLKDDSAIEEVKKITAERHGTVVTVKRVEKVQKKFLGRPVEVWKLYFTHPQDVPAIRDKIREHPAVIDIYEYDIPFAKRYLIDKGLVPMEGDEELKMLAFDIETLYHEGEEFAEGPILMISYADEEGARVITWKNVDLPYVDVVSTEREMIKRFLRVVKEKDPDVLITYNGDNFDFAYLKKRCEKLGINFALGRDGSEPKIQRMGDRFAVEVKGRIHFDLYPVIRRTINLPTYTLEAVYEAVFGQPKEKVYAEEITTAWETGENLERVARYSMEDAKVTYELGKEFLPMEAQLSRLIGQSLWDVSRSSTGNLVEWFLLRKAYERNELAPNKPDEKELARRRQSYEGGYVKEPERGLWENIVYLDFRSLYPSIIITHNVSPDTLNREGCKEYDVAPQVGHRFCKDFPGFIPSLLGDLLEERQKIKKKMKATIDPIERKLLDYRQRAIKILANSYYGYYGYARARWYCKECAESVTAWGREYITMTIKEIEEKYGFKVIYSDTDGFFATIPGADAETVKKKAMEFLKYINAKLPGALELEYEGFYKRGFFVTKKKYAVIDEEGKITTRGLEIVRRDWSEIAKETQARVLEALLKDGDVEKAVRIVKEVTEKLSKYEVPPEKLVIHEQITRDLKDYKATGPHVAVAKRLAARGVKIRPGTVISYIVLKGSGRIGDRAIPFDEFDPTKHKYDAEYYIENQVLPAVERILRAFGYRKEDLRYQKTRQVGLSAWLKPKGT | C | C | C | C | not PCR-amplified
15 | KOD P36R: modified KOD DNA polymerase with P36R (protein, listed as Thermococcus kodakaraensis) MILDTDYITEDGKPVIRIFKKENGEFKIEYDRTFERYFYALLKDDSAIEEVKKITAERHGTVVTVKRVEKVQKKFLGRPVEVWKLYFTHPQDVPAIRDKIREHPAVIDIYEYDIPFAKRYLIDKGLVPMEGDEELKMLAFDIETLYHEGEEFAEGPILMISYADEEGARVITWKNVDLPYVDVVSTEREMIKRFLRVVKEKDPDVLITYNGDNFDFAYLKKRCEKLGINFALGRDGSEPKIQRMGDRFAVEVKGRIHFDLYPVIRRTINLPTYTLEAVYEAVFGQPKEKVYAEEITTAWETGENLERVARYSMEDAKVTYELGKEFLPMEAQLSRLIGQSLWDVSRSSTGNLVEWFLLRKAYERNELAPNKPDEKELARRRQSYEGGYVKEPERGLWENIVYLDFRSLYPSIIITHNVSPDTLNREGCKEYDVAPQVGHRFCKDFPGFIPSLLGDLLEERQKIKKKMKATIDPIERKLLDYRQRAIKILANSYYGYYGYARARWYCKECAESVTAWGREYITMTIKEIEEKYGFKVIYSDTDGFFATIPGADAETVKKKAMEFLKYINAKLPGALELEYEGFYKRGFFVTKKKYAVIDEEGKITTRGLEIVRRDWSEIAKETQARVLEALLKDGDVEKAVRIVKEVTEKLSKYEVPPEKLVIHEQITRDLKDYKATGPHVAVAKRLAARGVKIRPGTVISYIVLKGSGRIGDRAIPFDEFDPTKHKYDAEYYIENQVLPAVERILRAFGYRKEDLRYQKTRQVGLSAWLKPKGT | A | B | B | B | 
16 | KOD P36H: modified KOD DNA polymerase with P36H (protein, listed as Thermococcus kodakaraensis) MILDTDYITEDGKPVIRIFKKENGEFKIEYDRTFEHYFYALLKDDSAIEEVKKITAERHGTVVTVKRVEKVQKKFLGRPVEVWKLYFTHPQDVPAIRDKIREHPAVIDIYEYDIPFAKRYLIDKGLVPMEGDEELKMLAFDIETLYHEGEEFAEGPILMISYADEEGARVITWKNVDLPYVDVVSTEREMIKRFLRVVKEKDPDVLITYNGDNFDFAYLKKRCEKLGINFALGRDGSEPKIQRMGDRFAVEVKGRIHFDLYPVIRRTINLPTYTLEAVYEAVFGQPKEKVYAEEITTAWETGENLERVARYSMEDAKVTYELGKEFLPMEAQLSRLIGQSLWDVSRSSTGNLVEWFLLRKAYERNELAPNKPDEKELARRRQSYEGGYVKEPERGLWENIVYLDFRSLYPSIIITHNVSPDTLNREGCKEYDVAPQVGHRFCKDFPGFIPSLLGDLLEERQKIKKKMKATIDPIERKLLDYRQRAIKILANSYYGYYGYARARWYCKECAESVTAWGREYITMTIKEIEEKYGFKVIYSDTDGFFATIPGADAETVKKKAMEFLKYINAKLPGALELEYEGFYKRGFFVTKKKYAVIDEEGKITTRGLEIVRRDWSEIAKETQARVLEALLKDGDVEKAVRIVKEVTEKLSKYEVPPEKLVIHEQITRDLKDYKATGPHVAVAKRLAARGVKIRPGTVISYIVLKGSGRIGDRAIPFDEFDPTKHKYDAEYYIENQVLPAVERILRAFGYRKEDLRYQKTRQVGLSAWLKPKGT | A | B | B | C | 
